Reference: patent US11623869B2 (UNIVERSIDADE ESTADUAL DE CAMPINAS—UNICAMP, priority 2017, dated 2023)

Tested on: non-muscle invasive bladder cancer (CBNMI)
Test: Adjuvancy of intravesical MRB-CFI-1 and systemic cisplatin in NMIBC rats, histopathology
Format: in vivo, Fischer 344 female rats
Excerpt: The protocol for use of animals in research was approved by the Ethics Committee on the Use of Animals (CEUA)—UNICAMP (protocol number: 4324-1).

[1] = MNU rats, MRB-CFI-1 intravesical 20 mg/kg 6 weeks and/or cisplatin i.p. […] weekly 4 weeks, n = 7

With N.N.[Cl][Pt][Cl] [cisplatin] the “decrease in the progression of urothelial neoplastic lesions, percentage of animals” value (MNU rats, same treatments) was 14.28%, the “Carcinoma in situ (Ptis), percentage of animals” value [1] was 14.28% and the “Papillary carcinoma (pTa), percentage of animals” value [1] was 57.14%. For the same molecule, the “Papilliferous hyperplasia, percentage of animals” value [1] was 14.28%, the “Urothelial carcinoma with lamina propria invasion (pT1), percentage of animals” value [1] was 14.28% and the “Carcinoma in situ (Ptis), number of animals” value (same treatments, of n = 7) was 1. For the same molecule, the “Papillary carcinoma (pTa), number of animals” value (same treatments, of n = 7) was 4, the “Papilliferous hyperplasia, number of animals” value (same treatments, of n = 7) was 1 and the “Urothelial carcinoma with lamina propria invasion (pT1), number of animals” value (same treatments, of n = 7) was 1.
